Results taken from EPA's ToxValDB 9.5.
Values joined by “and” are separate entries in the source; they are usually repeats but may differ in a detail not shown here. Identical values can stand only once.

What was measured:
[1] = system: Rattus norvegicus; settings: subchronic, oral, gavage, M/F, Fischer 344
[2] = system: Rattus norvegicus; assay: LC0; higher = less toxic; settings: acute; inhalation
[3] = system: Rattus norvegicus; settings: for LD50: acute
[4] = system: Mus musculus; settings: oral, gavage
[5] = system: Mus musculus; settings: oral
[6] = system: Rattus norvegicus; settings: oral; for NOAEL: drinking water
[7] = system: Dog, Mouse, Rat; settings: oral; Effects on the reproductive system and developing nervous system
[8] = system: Mus musculus; settings: developmental; oral; diet; M/F; Swiss-Webster; Nervous
[9] = system: Bacteria; settings: In vitro / microbiological; Growth inhibition
[10] = system: Mus musculus; settings: subchronic; inhalation; M/F; mortality
[11] = system: Mus musculus; settings: chronic, duration: 92 days, inhalation, intermittent
[12] = system: Mus musculus; assay: FEL; higher = less toxic; settings: subchronic; inhalation; M/F; mortality
[13] = system: Cavia porcellus; settings: subchronic; duration: 90 days; oral; M/F; Guinea Pig; ototoxicity
[14] = system: Rattus norvegicus; settings: developmental, oral, gavage, M, Wistar, generation: F1
[15] = system: Rattus norvegicus; settings: M/F; for LOAEL: developmental, Wistar
[16] = system: Rattus norvegicus; settings: Hershberger, duration: 10 days, oral, gavage, active + Antiandrogenic + anti-androgenic + significant increase in liver wt at 100 and greater / significant decrease in AST and increase …
[17] = system: Cavia porcellus; settings: chronic; oral; M/F; Guinea Pig; increased relative liver weight
[18] = system: Chalcophaps sp.; settings: oral
[19] = system: Mus musculus; settings: repeat dose other; oral
[20] = system: Mus musculus; settings: chronic; duration: 2 years; oral; drinking water; M/F; B6C3F1; Hardarian gland & lung tumors (males)
[21] = system: Rattus norvegicus; settings: subchronic; duration: 90 days; oral; drinking water; Nerve: Damage
[22] = system: Monkey; settings: chronic; duration: 363 days; oral; diet
[23] = system: Canidae; settings: short-term; duration: 22 days; oral; Beagle
[24] = system: Oryctolagus sp.; assay: LC60; higher = less toxic; settings: acute; oral
[25] = system: Rattus norvegicus; assay: LD5; higher = less toxic; settings: developmental, oral, drinking water, M/F, Wistar
[26] = system: Oryctolagus sp.; settings: developmental; oral; gavage; Prominent liver lobulation
[27] = system: Mus musculus; assay: LD0; higher = less toxic; settings: acute; injection; Intraperitoneal
[28] = system: Oryctolagus sp.; settings: acute, dermal
[29] = system: Homo sapiens; assay: LD100; higher = less toxic; settings: acute; oral
[30] = system: Oryctolagus sp.; assay: LD40; higher = less toxic; settings: acute; dermal; occlusive
[31] = system: Mus musculus; assay: LD100; higher = less toxic; settings: acute; oral; TAC:SWfBr
[32] = system: Cavia porcellus; settings: uterotrophic; duration: 12 days; injection; subcutaneous; Guinea Pig; Active
[33] = subchronic, duration: 13 weeks, oral, gavage, Fischer 344
[34] = subchronic, duration: 13 weeks, B6C3F1
[35] = reproduction developmental, duration: 10 weeks, oral, drinking water, F, Fischer 344
[36] = reproduction developmental, duration: 10 weeks, oral, drinking water, M, Fischer 344
[37] = reproduction developmental, duration: 80 days, oral, drinking water, Long-Evans
[38] = short-term, duration: 28 days, oral, gavage, Sprague-Dawley

O=C(O)CCl [Chloroacetic acid]
NOEL ([1]; duration: 13 weeks, Deaths + Body Weight Changes: decrease + Blood Chemistry: Ch E decrease, Ca decrease, TP decrease + Absolute Organ Weight: Heart decrease, …): < 30 mg/kg-day | LC0 [2]: 0.005 mg/L | NOAEL ([3]; chronic, duration: 208 days, oral, diet, M, Wistar): 25 mg/kg-day | NOAEL [3, 33]: 30 mg/kg-day | NOAEL [4, 34]: 100 mg/kg-day

[Al] [Aluminum]
LOAEL ([5]; chronic, duration: 24 months, diet, M/F, Swiss-Webster, neurological): 100 mg/kg-day | NOAEL ([5]; developmental, duration: 364 days, diet, M/F, Swiss-Webster, neurological): 26 mg/kg-day | NOAEL ([6]; developmental, Renal damage (hydronephrosis, urethral dilatation, obstruction and/or presence of calculi) and reduced grip strength, but not cognitive …): 30 mg/kg-day | LOEL [7]: 50 mg/kg-day and 75 mg/kg-day | LOAEL (mg Al/kg-day) [8]: 100

CN[C@@H]1[C@@H](O[C@H]2O[C@H](CO)[C@@H](N)[C@H](O)[C@H]2O)O[C@H]2C[C@@H](N)[C@@H](O[C@H]3[C@H](O)[C@@H](O)[C@H](N)C[C@@H]3N)O[C@@H]2[C@@H]1O [Apramycin]
NOAEC [9]: 8.3 µg/mL

CC#N [Acetonitrile]
NOAEL [10]: 336 mg/m3 | NOAEL ([11]; Blood: Decreased hematocrit + Erythrocytes: Decreased cell count + Liver: Hepatic lesions): 168 mg/m3 | NOAEL ([11]; Liver: Increased relative weight): 168 mg/m3 | FEL [12]: 672 mg/m3

NC[C@@H]1O[C@H](O[C@H]2[C@@H](O)[C@H](O[C@@H]3[C@@H](O)[C@H](N)C[C@H](N)[C@H]3O[C@H]3O[C@H](CN)[C@@H](O)[C@H](O)[C@H]3N)O[C@@H]2CO)[C@H](N)[C@@H](O)[C@@H]1O [Neomycin]
NOEL [13]: 6 mg/kg-day

CCCCC(CC)COC(=O)c1ccccc1C(=O)OCC(CC)CCCC (centres undefined) [Di(2-ethylhexyl) phthalate]
LOEL ([14]; F1: AGD (mm)): 405 mg/kg-day | NOEL ([14]; F1: AGD (mm)): 135 mg/kg-day | NOEL ([14]; F1: Hypospadias (% litters affected) + F1: Hypospadias (litters affected incidence)): 405 mg/kg-day | LOAEL ([15]; duration: 9 weeks, inhalation, whole body): 4.79 mg/m3 | LOAEL ([15]; duration: 12 days, oral, gavage): 1 mg/kg-day | LOAEL ([5]; developmental, duration: 20 days, gavage, F, CD1, developmental): 0.04 mg/kg-day | LOEL ([16]; Sprague-Dawley): 300 mg/kg-day and 100 mg/kg-day | LOEL ([16]; Wistar): 300 mg/kg-day and 200 mg/kg-day | NOEL ([16]; Wistar): 100 mg/kg-day | LOAEL [17]: 19 mg/kg-day | NOAEL [18]: 1.1 mg/kg-day | LOAEL [19]: 183 mg/kg-day | NOAEL [19]: 18.3 mg/kg-day

C=CC(N)=O [Acrylamide]
NOAEL ([15]; subchronic, duration: 90 days, oral, drinking water, Fischer 344, neurological): 0.2 mg/kg-day | NOAEL ([6]; chronic, duration: 2 years, M/F, Fischer 344, neurotoxicity): 0.67 mg/kg-day and 1.88 mg/kg-day | LOEL [20]: 1.05 mg/kg-day | NOEL [21]: 0.2 mg/kg-day | NOAEL [22]: ≥ 1 mg/kg-day and ≤ 3 mg/kg-day | NOAEL ([3]; chronic, duration: 93 days, oral, drinking water, Fischer 344): 0.2 mg/kg-day | NOAEL ([3]; chronic, oral, drinking water, Fischer 344): 0.1 mg/kg-day | NOAEL ([3]; developmental, oral, gavage, Sprague-Dawley / Mice: Swiss): 15 mg/kg-day | LOAEL [3, 35]: 2 mg/kg-day | NOAEL [3, 35]: 0.5 mg/kg-day | NOAEL ([3]; reproduction developmental, duration: 10 weeks, oral, drinking water, Long-Evans, generation: F0): 5 mg/kg-day | LOAEL [3, 36]: 2 mg/kg-day | NOAEL [3, 36]: 0.5 mg/kg-day | LOAEL [3, 37]: 2.8 mg/kg-day | NOAEL [3, 37]: 1.5 mg/kg-day | NOAEL ([3]; reproduction developmental, oral, drinking water, Fischer 344, generation: F0): 0.5 mg/kg-day | NOAEL ([3]; reproduction developmental, oral, drinking water, Fischer 344, generation: F1): 2 mg/kg-day | NOAEL ([3]; reproduction developmental, oral, drinking water, Fischer 344, generation: F2): 2 mg/kg-day | NOAEL ([3]; reproduction developmental, oral, gavage, F, Sprague-Dawley / Mice: Swiss): 2.5 mg/kg-day | NOAEL ([3]; short-term, duration: 28 days, oral, drinking water, Fischer 344): ≥ 4.1 mg/kg-day and ≤ 4.3 mg/kg-day | NOAEL [3, 33]: 5 mg/kg-day | NOAEL [23]: 5 mg/kg-day | NOAEL ([4]; developmental, Swiss): 15 mg/kg-day | NOAEL ([4]; reproduction developmental, F, Swiss): 2.5 mg/kg-day

Cc1ccc(C)c(O)c1 [2,5-Dimethylphenol]
LC60 [24]: 938 mg/kg | LD50 ([3]; oral): 444 mg/kg

CCC(C)O (centres undefined) [2-Butanol]
LD5 [25]: 657 mg/kg-day

Cc1cc(C)[nH]c(=O)n1.O=C(Nc1ccc([N+](=O)[O-])cc1)Nc1ccc([N+](=O)[O-])cc1 [1,3-Bis(4-nitrophenyl)urea 4,6-dimethylpyrimidin-2-ol (1:1)]
NOEL ([6]; reproduction developmental, gavage, M/F, CD/CRJ, Maternal mortality & decreased bodyweight gain & feed consumption / decreased bodyweight & various malformations in offspring): 200 mg/kg-day | NOAEL [26]: 60 mg/kg-day

CCCCC(CC)COP(=O)(O)OCC(CC)CCCC (centres undefined) [Bis(2-ethylhexyl) phosphate]
LD0 [27]: 63 mg/kg | LD50 ([3]; injection, Intraperitoneal): ≥ 50 mg/kg and ≤ 100 mg/kg | LD50 ([3]; oral): 4740 mg/kg | LD50 ([3]; oral, gavage, Wistar): 1400 mg/kg | LD50 [28]: 1200 mg/kg | LD50 ([28]; occlusive, New Zealand): > 2000 mg/kg

CCCCCCCCCCCCCCCCCC(=O)O [Octadecanoic acid]
LD100 [29]: 14300 mg/kg | LD50 ([3]; oral): 4600 mg/kg

N#Cc1cccnc1 [3-Pyridinecarbonitrile]
LD40 [30]: ≥ 2000 mg/kg and ≤ 4000 mg/kg | LD50 ([3]; oral, gavage, Sprague-Dawley): 1460 mg/kg and 1480 mg/kg | LD50 ([3]; oral, gavage, Wistar): 1100 mg/kg | LOAEL [3, 38]: 30 mg/kg-day | NOAEL [3, 38]: 5 mg/kg-day

C[N+](C)(C)Cc1ccccc1.[Cl-] [Benzyltrimethylammonium chloride]
NOEL ([1]; Deaths + Clinical Observation: Nasal and eye discharge Lacrimation Salivation Tremors + Functional Observational Battery: Lacrimation or …): < 12.5 mg/kg-day | LD100 [31]: 1600 mg/kg | LD50 ([3]; oral, gavage, Fischer 344): 180 mg/kg | NOAEL ([3]; short-term, duration: 28 days, oral, Crj:CD): 30 mg/kg-day | NOAEL ([3]; short-term, duration: 28 days, oral, F, Crj:CD): 60 mg/kg-day | NOAEL [3, 33]: 25 mg/kg-day | NOAEL [4, 34]: 25 mg/kg-day

CC/C(=C(\c1ccc(O)cc1)c1ccc(OCCN(C)C)cc1)c1ccccc1 [4-Hydroxytamoxifen]
LEL [32]: 0.1 mg/day
